Measured values published in patent US20190255042A1, “APPLICATION OF HEDGEHOG PATHWAY INHIBITOR IN TREATING FIBROSIS DISEASES” (IMPACT THERAPEUTICS, INC, priority 2016, published 2019).

What was measured:
[1] = tested on: unilateral pulmonary fibrosis model in SD rats; assay: Prophylactic therapeutic efficacy in unilateral pulmonary fibrosis model in SD rats (bleomycin); type: in vivo; parameters: key to Fibrosis score (Ashcraft): Ashcraft semi-quantitative fibrosis score; Evaluation of injury and inflammatory lesions of left lung: Fibrotic lesion edge / Evaluation of injury and inflammatory lesions of left lung: Fibrosis lesion: scale not given here; conditions: for Evaluation of injury and inflammatory lesions of left lung: Fibrosis lesion / Evaluation of injury and inflammatory lesions of left lung: Fibrotic lesion edge / Fibrosis area (left pulmonary fibrosis) / Fibrosis Score 1-3 (%) / Fibrosis Score 4-8 (%) / Fibrosis score (Ashcraft) / Volume of left lung / Weight of left lung: D15, mean ± sem, n = 8; for Evaluation of injury and inflammatory lesions of left lung: Fibrosis lesion / Evaluation of injury and inflammatory lesions of left lung: Fibrotic lesion edge: HE score; for Fibrosis area (left pulmonary fibrosis): Masson trichrome; for weight of left lung compared with model group: p<0.05
Protocol: 40 male SD rats were randomized into Model group (Group 1, n=8), positive drug group BIBF1120 60 mg/kg/d group (Group 2, n=8), Compound A 5 mg/kg/d group (Group 3, n=8), compound A 10 mg/kg/d group (Group 4, n=8) and Compound A 20 mg/kg/d (Group 5, n=8). On the modeling day, rats were anesthetized and exposed to trachea. Bleomycin was injected into trachea of each group (dosage: 3 mg/kg, volume: 1.0 ml/kg). Oral administration was performed 2 hours after modeling, once a day. On Day 15, all the animals were killed, the left lung was taken, the weight and volume of the left lung were measured, then fixed by formalin, the bronchioles were stained with HE, Masson trichrome. The bronchioles, final bronchiole and small pulmonary artery injury and inflammation invasion were evaluated by semi-quantitative score, and pulmonary fibrosis was evaluated by Ashcraft semi-quantitative score.

[2] = tested on: liver fibrosis model in C57BL/6 mice induced by CCl4; assay: Prophylactic therapeutic efficacy in liver fibrosis model in C57BL/6 mice induced by CCl4; type: in vivo
Protocol: 56 male C57BL/6 mice were randomize divided into false Model group (Group 1, n=6), Model group (Group 2, n=10), positive drug Obercholic acid group (Group 3, n=10, 30 mg/kg/d), compound A low-dose group (Group 4, n=10, 5 mg/kg/d), Compound A medium-dose (Group 5, n=10, 10 mg/kg/d), and Compound A high-dose group (Group 6, n=10, 20 mg/kg/d). Oral molding agent for molding three times a week, for 4 weeks, weighing before each dose. Compound A was administered orally once a day for a total of 28 days from the day of modeling. The model group was given an equal volume of drug vehicle and weighed before each dose. All animals fasted for 6 hours from 24 hours after the end of the last dose. Serum was collected and the concentrations of AST, ALT and TBIL in serum were detected. All animals were euthanized, the livers were collected, weighed, and photos of the gross anatomy of the livers were taken. The liver tissue was fixed in 10% formalin solution for histopathological examination, H&E staining and Sirius red staining.

[3] = tested on: lung fibrosis model in mice induced by bleomycin; assay: Therapeutic efficacy in lung fibrosis model in mice induced by bleomycin; type: in vivo, C57BL/6 mice; conditions: for Percentage of positive α-SMA (%): lung tissue immunohistochemical staining; for Percentage of positive α-SMA (%) / Inflammatory infiltration area / Total lung tissue area / Percentage of inflammatory area (%): n = 10, Mean ± Sem; for Percentage of inflammatory area (%): #<0.05 vs. BLM model group; for inflammatory infiltration area compared with model group: p<0.05
Protocol: Experimental Methods: 60 male C57BL/6 mice were randomize into 6 groups: Blank control group (Group 1, n=10), model group (Group 2, BLM, n=10), Compound A 10 mpk group (Group 3, n=10), compound A 20 mpk group (Group 4, n=10), Compound A 20 mpk +BIBF1120 50 mpk (Group 5, n=10), and BIBF1120 50 mpk positive reference group (Group 6, n=10). One week after the mice were acclimated to the environment, 10 mice in the blank control group were given 50 μl of normal saline in the trachea, and other 50 mice were given 50 μl BLM (0.66 mg/kg, 2 ml/kg) in the trachea. After BLM infusion, 50 mice in BLM infusion group were randomly assigned to start treatment on the 5th day, once a day, with a treatment cycle of 20 days. The whole process was 25 days. After the experiment, the lung tissues were fixed in 10% neutral formalin, dehydrated by alcohol gradient, embedded with paraffin, stained by hematoxylin-eosin (H&E) and Masson trichrome staining. And the inflammatory area and degree of fibrosis of the lung tissues in mice were evaluated by APERIO ScanScope. Immunohistochemical staining of lung tissue was performed to quantify α-SMA positive fibroblasts in lung tissue and to calculate the percentage (%) of α-SMA staining in the entire lung stroma.

[4] = 5 mg/kg/d oral from modeling day
[5] = 10 mg/kg/d oral from modeling day
[6] = 20 mg/kg/d oral from modeling day
[7] = high dose group (20 mg/kg/d), four weeks, p<0.05
[8] = obercholic acid 30 mg/kg/d, compound A 5, 10, 20 mg/kg/d

CC(C)c1cnc(-c2cc(NC(=O)c3ccc(N4C[C@@H](C)N(C)[C@@H](C)C4)cc3C(F)(F)F)ccc2Cl)[nH]1 [Comp A, N-(3-(5-isopropyl-1H-imidazol-2-yl)-4-chlorophenyl)-2-trifluoromethyl-4-((3S,5R)-3,4,5-trimethylpiperazin-1-yl)benzamide]
Evaluation of injury and inflammatory lesions of left lung: Fibrosis lesion [1, 4]: 7.93 ± 0.16 | Evaluation of injury and inflammatory lesions of left lung: Fibrotic lesion edge [1, 4]: 5.93 ± 0.20 | Fibrosis area (left pulmonary fibrosis) [1, 4]: 81.64 ± 10.49 | Fibrosis Score 1-3 (%) [1, 4]: 62.50 ± 16.69% | Fibrosis Score 4-8 (%) [1, 4]: 37.50 ± 16.69% | Fibrosis score (Ashcraft) [1, 4]: 3.33 ± 0.36 | Volume of left lung [1, 4]: 1.38 ± 0.05 cm^3 | Weight of left lung [1, 4]: 1.37 ± 0.08 g | Evaluation of injury and inflammatory lesions of left lung: Fibrosis lesion [1, 5]: 6.93 ± 0.21 | Evaluation of injury and inflammatory lesions of left lung: Fibrotic lesion edge [1, 5]: 5.45 ± 0.28 | Fibrosis area (left pulmonary fibrosis) [1, 5]: 78.84 ± 4.44 | Fibrosis Score 1-3 (%) [1, 5]: 68.75 ± 19.59% | Fibrosis Score 4-8 (%) [1, 5]: 31.25 ± 19.59% | Fibrosis score (Ashcraft) [1, 5]: 3.15 ± 0.32 | Volume of left lung [1, 5]: 1.29 ± 0.06 cm^3 | Weight of left lung [1, 5]: 1.13 ± 0.05 g | Evaluation of injury and inflammatory lesions of left lung: Fibrosis lesion [1, 6]: 7.68 ± 0.31 | Evaluation of injury and inflammatory lesions of left lung: Fibrotic lesion edge [1, 6]: 6.00 ± 0.13 | Fibrosis area (left pulmonary fibrosis) [1, 6]: 76.37 ± 8.33 | Fibrosis Score 1-3 (%) [1, 6]: 71.25 ± 22.95% | Fibrosis Score 4-8 (%) [1, 6]: 28.75 ± 22.95% | Fibrosis score (Ashcraft) [1, 6]: 3.29 ± 0.63 | Volume of left lung [1, 6]: 1.21 ± 0.09 cm^3 | Weight of left lung [1, 6]: 1.13 ± 0.08 g | injury of terminal bronchioles and pulmonary arterioles compared with model group and Compound A-5 mpk group ([1]; 10 mpk, fibrosis foci, p<0.001): significantly reduced | weight of left lung compared with model group ([1]; 10 mpk): significantly lower | weight of left lung compared with model group ([1]; 20 mpk): significantly lower | degree of pulmonary fibrosis (Ashcraft score) compared with model group ([1]; BIBF1120 60 mg/kg/d, Compound A 5, 10, 20 mg/kg/d, p<0.01): significantly alleviated | average score of fibrosis in the entire fibrosis lesion (ashcraft) ([1]; BIBF1120 60 mg/kg/d, compound A 5, 10, 20 mg/kg/d): about 3 points | serum ALT, AST, and TBIL ([2]; 5 mg/kg, 10 mg/kg, and 20 mg/kg daily for four consecutive weeks): Slight reductions | effect on the inflammatory response of liver tissue ([2]; 5, 10, 20 mg/kg daily for four weeks): little effect | dose-dependent ALT and AST ([2]; 5, 10, 20 mg/kg/d, four weeks): decreasing trend | hepatocellular degeneration, necrosis and inflammatory cell infiltration ([2]; Compound A treatment groups 5, 10, 20 mg/kg/d): tendency to reduce | TBIL compared with model group ([2]; Compound A, four weeks of treatment): not significantly decreased | liver weight ([2]; after 4 weeks, compared with false model group, Obercholic acid 30 mg/kg/d, Compound A 5, 10, 20 mg/kg/d): no significant increase | area of liver tissue fibrosis ([2]; compound A dose groups, model group 1.2%, no statistical difference): 0.8% | changes of liver surface compared with model group ([2]; gross liver after 4 weeks, Obercholic acid 30 mg/kg/d, compound A 5, 10, 20 mg/kg/d): slightly alleviated | ALT compared with model group [2, 7]: significantly lower | AST compared with model group [2, 7]: significantly lower | body weight ([2]; high-dose group 20 mg/kg, significant difference from the other groups): no significant body weight growth | hepatic fibrosis area (Sirius red staining) compared with model group [2, 8]: no significant difference | total score of liver cell injury compared with model group [2, 8]: not significantly different | liver injury score ([2]; three dose groups (5, 10, 20 mg/kg), model group 6 points): 4-5 points | Percentage of positive α-SMA (%) ([3]; 10 mpk oral D5 to D25): 0.78 ± 0.11% | Inflammatory infiltration area ([3]; 10 mpk oral D5 to D25): 8.80 ± 2.79 mm^2 | Total lung tissue area ([3]; 10 mpk oral D5 to D25): 100.20 ± 3.61 mm^2 | Percentage of inflammatory area (%) ([3]; 10 mpk oral D5 to D25): 9.42 ± 3.35^# % | modified pathological Ashcroft score of pulmonary fibrosis injury compared with model group ([3]; 10 mpk, p<0.01): significantly decreased | inflammatory infiltration area compared with model group ([3]; 10 mpk): significantly decreased | Percentage of positive α-SMA (%) ([3]; 20 mpk oral D5 to D25, ##p < 0.01 vs. Model group): 0.64 ± 0.12^## % | Inflammatory infiltration area ([3]; 20 mpk oral D5 to D25): 7.85 ± 2.28 mm^2 | Total lung tissue area ([3]; 20 mpk oral D5 to D25): 96.41 ± 3.28 mm^2 | Percentage of inflammatory area (%) ([3]; 20 mpk oral D5 to D25): 8.23 ± 2.40^# % | immunohistochemical staining of α-SMA compared with model group ([3]; 20 mpk, p<0.01): significantly decreased | modified pathological Ashcroft score of pulmonary fibrosis injury compared with model group ([3]; 20 mpk, p<0.01): significantly decreased | inflammatory infiltration area compared with model group ([3]; 20 mpk): significantly decreased
